Columns and labels:
[1] = test system: giant foxtail; test: Test A pre-/postemergence greenhouse test; format: in vivo, Setaria faberi; settings: for Plant response rating, Foxtail, Giant: 0 to 100 scale where 0 is no effect and 100 is complete control; for Foxtail, Giant plant response rating: 0 to 100 scale
In short: (§1)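 Sowing in loam/sand; same-day pre (directed soil spray) and post (foliar, 1–2 leaf, 2–10 cm) treatment with surfactant-containing non-phytotoxic solvent formulation; ~10 days in greenhouse; eye-scored injury against untreated plants.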

[2] = test system: velvetleaf; test: Test A pre-/postemergence greenhouse test; format: in vivo, Abutilon theophrasti; settings: for Plant response rating, Velvetleaf: 0 to 100 scale where 0 is no effect and 100 is complete control; for Velvetleaf plant response rating: 0 to 100 scale
In short: as §1

[3] = test system: wheat; test: Test A pre-/postemergence greenhouse test; format: in vivo, Triticum aestivum; settings: for Plant response rating, Wheat: 0 to 100 scale where 0 is no effect and 100 is complete control; for Wheat plant response rating: 0 to 100 scale
In short: as §1

[4] = test system: corn; test: Test A pre-/postemergence greenhouse test; format: in vivo, Zea mays; settings: for Plant response rating, Corn: 0 to 100 scale where 0 is no effect and 100 is complete control; for Corn plant response rating: 0 to 100 scale
In short: as §1

[5] = test system: downy brome; test: Test C pre-/postemergence test; format: in vivo, Bromus tectorum; settings: for Plant response rating, Bromegrass, Downy: 31 g ai/ha, scale 0 to 100 (0 no effect, 100 complete control)
In short: (§2)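 Test chemicals were formulated with surfactant in a non-phytotoxic solvent and sprayed both on freshly planted seeds (preemergence) and on 1- to 4-leaf plants of 2–18 cm (postemergence). Flooded-paddy pots received compound directly into 3 cm of standing water, maintained for the test.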

[6] = test system: catchweed bedstraw; test: Test C pre-/postemergence test; format: in vivo, Galium aparine; settings: for Plant response rating, Galium: 31 g ai/ha, scale 0 to 100 (0 no effect, 100 complete control)
In short: as §2

[7] = test system: bermudagrass; test: Test C pre-/postemergence test; format: in vivo, Cynodon dactylon; settings: for Plant response rating, Bermudagrass: 31 g ai/ha
In short: as §2

[8] = test system: Surinam grass; test: Test C pre-/postemergence test; format: in vivo, Brachiaria decumbens; settings: for Plant response rating, Surinam Grass: 31 g ai/ha, scale 0 to 100 (0 no effect, 100 complete control)
In short: as §2

[9] = test system: crabgrass; test: Test C pre-/postemergence test; format: in vivo, Digitaria sanguinalis; settings: for Plant response rating, Crabgrass, Large: 31 g ai/ha, scale 0 to 100 (0 no effect, 100 complete control)
In short: as §2

[10] = test system: giant foxtail; test: Test C pre-/postemergence test; format: in vivo, Setaria faberii; settings: for Plant response rating, Foxtail, Giant: 31 g ai/ha, scale 0 to 100 (0 no effect, 100 complete control)
In short: as §2

[11] = test system: johnsongrass; test: Test C pre-/postemergence test; format: in vivo, Sorghum halepense; settings: for Plant response rating, Johnsongrass: 31 g ai/ha, scale 0 to 100 (0 no effect, 100 complete control)
In short: as §2

[12] = test system: lambsquarters; test: Test C pre-/postemergence test; format: in vivo, Chenopodium album; settings: for Plant response rating, Lambsquarters: 31 g ai/ha, scale 0 to 100 (0 no effect, 100 complete control)
In short: as §2

[13] = test system: morningglory; test: Test C pre-/postemergence test; format: in vivo, Ipomoea coccinea; settings: for Plant response rating, Morningglory: 31 g ai/ha, scale 0 to 100 (0 no effect, 100 complete control)
In short: as §2

[14] = test system: pigweed; test: Test C pre-/postemergence test; format: in vivo, Amaranthus retroflexus; settings: for Plant response rating, Pigweed: 31 g ai/ha, scale 0 to 100 (0 no effect, 100 complete control)
In short: as §2

[15] = test system: soybean; test: Test C pre-/postemergence test; format: in vivo, Glycine max; settings: for Plant response rating, Soybean: 31 g ai/ha, scale 0 to 100 (0 no effect, 100 complete control)
In short: as §2

[16] = test system: rice; test: Test C flooded paddy test; format: in vivo, Oryza sativa; settings: Flood
In short: (§3)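 Flooded 3 cm over soil; compound into paddy water; depth kept constant. Greenhouse 13–15 d.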

[17] = test system: barnyardgrass; test: Test C flooded paddy test; format: in vivo, Echinochloa crus-galli; settings: Flood
In short: as §3

[18] = Postemergence, 500 g ai/ha, 0 is no effect, 100 is complete control
[19] = Preemergence, 125 g ai/ha, 0 no effect, 100 complete control
[20] = Preemergence, 500 g ai/ha, 0 no effect, 100 complete control
[21] = 62 g ai/ha, Preemergence, scale 0 to 100
[22] = 125 g ai/ha, preemergence, scale 0 (no effect) to 100 (complete control)
[23] = preemergence, 250 g ai/ha, scale 0 (no effect) to 100 (complete control)
[24] = 62 g ai/ha, Preemergence, scale 0 to 100 (0 no effect, 100 complete control)
[25] = Preemergence, scale 0 to 100 (0 no effect, 100 complete control)
[26] = 62 g ai/ha, scale 0 to 100 (0 no effect, 100 complete control)
[27] = 250 g ai/ha, scale 0 to 100, 0 no effect, 100 complete control, 13 to 15 days
[28] = Postemergence, 125 g ai/ha, 0 is no effect, 100 is complete control
[29] = preemergence, 125 g ai/ha, scale 0 (no effect) to 100 (complete control)
[30] = 31 g ai/ha, scale 0 to 100 (0 no effect, 100 complete control)
[31] = 62 g ai/ha, scale 0 to 100, 0 no effect, 100 complete control, 13 to 15 days
[32] = 125 g ai/ha, scale 0 to 100, 0 no effect, 100 complete control, 13 to 15 days

Cc1cc[n+]([O-])c(S(=O)(=O)Cc2c(C(F)(F)F)nn(C)c2OCC(F)F)c1 [Compound 94]
Plant response rating, Foxtail, Giant ([1]; Postemergence, 125 g ai/ha): 50 | Foxtail, Giant plant response rating [1, 18]: 80 | Foxtail, Giant plant response rating [1, 19]: 100 | Plant response rating, Foxtail, Giant ([1]; Preemergence, 500 g ai/ha): 100 | Plant response rating, Velvetleaf ([2]; Postemergence, 125 g ai/ha): 10 | Velvetleaf plant response rating [2, 18]: 70 | Velvetleaf plant response rating [2, 19]: 10 | Velvetleaf plant response rating [2, 20]: 100 | Plant response rating, Wheat ([3]; Postemergence, 125 g ai/ha): 60 | Wheat plant response rating [3, 18]: 80 | Wheat plant response rating [3, 19]: 40 | Wheat plant response rating [3, 20]: 90 | Plant response rating, Corn ([4]; Postemergence, 125 g ai/ha): 40 | Corn plant response rating [4, 18]: 80 | Corn plant response rating [4, 19]: 20 | Plant response rating, Corn ([4]; Preemergence, 500 g ai/ha): 70 | Bromegrass, Downy plant response rating [5, 21]: 75 | Bromegrass, Downy plant response rating [5, 22]: 80 | Plant response rating, Bromegrass, Downy ([5]; Preemergence): 10 | Bromegrass, Downy plant response rating [5, 23]: 95 | Galium plant response rating [6, 21]: 100 | Galium plant response rating [6, 22]: 100 | Plant response rating, Galium ([6]; Preemergence): 95 | Galium plant response rating [6, 23]: 100 | Bermudagrass plant response rating [7, 24]: 100 | Bermudagrass plant response rating [7, 22]: 100 | Plant response rating, Bermudagrass [7, 25]: 90 | Bermudagrass plant response rating [7, 23]: 100 | Surinam Grass plant response rating [8, 21]: 90 | Surinam Grass plant response rating [8, 22]: 90 | Plant response rating, Surinam Grass ([8]; Preemergence): 90 | Surinam Grass plant response rating [8, 23]: 100 | Crabgrass, Large plant response rating [9, 21]: 98 | Crabgrass, Large plant response rating [9, 22]: 100 | Plant response rating, Crabgrass, Large ([9]; Preemergence): 20 | Crabgrass, Large plant response rating [9, 23]: 100 | Foxtail, Giant plant response rating [10, 21]: 95 | Foxtail, Giant plant response rating [10, 22]: 100 | Plant response rating, Foxtail, Giant ([10]; Preemergence): 90 | Foxtail, Giant plant response rating [10, 23]: 100 | Johnsongrass plant response rating [11, 21]: 95 | Johnsongrass plant response rating [11, 22]: 100 | Plant response rating, Johnsongrass ([11]; Preemergence): 85 | Johnsongrass plant response rating [11, 23]: 100 | Lambsquarters plant response rating [12, 21]: 90 | Lambsquarters plant response rating [12, 22]: 100 | Plant response rating, Lambsquarters ([12]; Preemergence): 90 | Lambsquarters plant response rating [12, 23]: 100 | Morningglory plant response rating [13, 21]: 90 | Morningglory plant response rating [13, 22]: 98 | Plant response rating, Morningglory ([13]; Preemergence): 30 | Morningglory plant response rating [13, 23]: 100 | Pigweed plant response rating [14, 21]: 90 | Pigweed plant response rating [14, 22]: 100 | Plant response rating, Pigweed ([14]; Preemergence): 60 | Pigweed plant response rating [14, 23]: 100 | Soybean plant response rating [15, 21]: 30 | Soybean plant response rating [15, 22]: 30 | Plant response rating, Soybean ([15]; Preemergence): 0 | Soybean plant response rating [15, 23]: 80 | Plant response rating, Rice [16, 26]: 0 | Plant response rating, Rice [16, 27]: 20 | Plant response rating, Barnyardgrass [17, 26]: 0 | Plant response rating, Barnyardgrass [17, 27]: 0

Cc1cc[n+]([O-])c([S+]([O-])Cc2c(C(F)(F)F)nn(C)c2OCC(F)(F)F)c1 (racemic) [Compound 30]
Foxtail, Giant plant response rating [1, 28]: 80 | Foxtail, Giant plant response rating [1, 18]: 90 | Foxtail, Giant plant response rating [1, 19]: 100 | Plant response rating, Foxtail, Giant ([1]; Preemergence, 500 g ai/ha): 100 | Velvetleaf plant response rating [2, 28]: 50 | Velvetleaf plant response rating [2, 18]: 70 | Velvetleaf plant response rating [2, 19]: 90 | Plant response rating, Velvetleaf ([2]; Preemergence, 500 g ai/ha): 100 | Wheat plant response rating [3, 28]: 60 | Wheat plant response rating [3, 18]: 70 | Wheat plant response rating [3, 19]: 80 | Plant response rating, Wheat ([3]; Preemergence, 500 g ai/ha): 90 | Corn plant response rating [4, 28]: 50 | Corn plant response rating [4, 18]: 60 | Corn plant response rating [4, 19]: 0 | Plant response rating, Corn ([4]; Preemergence, 500 g ai/ha): 70 | Bromegrass, Downy plant response rating [5, 21]: 0 | Plant response rating, Bromegrass, Downy ([5]; Preemergence): 0 | Plant response rating (0 to 100), Bromegrass, Downy ([5]; Preemergence, 250 g ai/ha): 60 | Bromegrass, Downy plant response rating [5, 29]: 60 | Galium plant response rating [6, 21]: 100 | Plant response rating, Galium ([6]; Preemergence): 100 | Plant response rating (0 to 100), Galium ([6]; Preemergence, 250 g ai/ha): 100 | Bermudagrass plant response rating [7, 24]: 100 | Plant response rating, Bermudagrass [7, 25]: 100 | Plant response rating (0 to 100), Bermudagrass ([7]; Preemergence, 250 g ai/ha): 100 | Bermudagrass plant response rating [7, 29]: 100 | Surinam Grass plant response rating [8, 21]: 100 | Plant response rating, Surinam Grass ([8]; Preemergence): 60 | Crabgrass, Large plant response rating [9, 21]: 98 | Plant response rating, Crabgrass, Large ([9]; Preemergence): 98 | Plant response rating (0 to 100), Crabgrass, Large ([9]; Preemergence, 250 g ai/ha): 100 | Foxtail, Giant plant response rating [10, 21]: 100 | Plant response rating, Foxtail, Giant ([10]; Preemergence): 100 | Plant response rating (0 to 100), Foxtail, Giant ([10]; Preemergence, 250 g ai/ha): 100 | Johnsongrass plant response rating [11, 21]: 100 | Plant response rating, Johnsongrass ([11]; Preemergence): 85 | Plant response rating (0 to 100), Johnsongrass ([11]; Preemergence, 250 g ai/ha): 100 | Lambsquarters plant response rating [12, 21]: 100 | Plant response rating, Lambsquarters ([12]; Preemergence): 100 | Morningglory plant response rating [13, 21]: 100 | Plant response rating, Morningglory ([13]; Preemergence): 100 | Pigweed plant response rating [14, 21]: 100 | Plant response rating, Pigweed ([14]; Preemergence): 100 | Plant response rating, Soybean ([15]; Preemergence): 60 | Plant response rating, Rice [16, 30]: 0 | Plant response rating, Rice [16, 31]: 0 | Plant response rating, Rice [16, 32]: 20 | Plant response rating, Rice [16, 27]: 80 | Plant response rating, Barnyardgrass [17, 30]: 0 | Plant response rating, Barnyardgrass [17, 31]: 0 | Plant response rating, Barnyardgrass [17, 32]: 20 | Plant response rating, Barnyardgrass [17, 27]: 65

Reference: US20100298141A1, “SUBSTITUTED PYRIDINE N-OXIDE HERBICIDES” (E. I. DU PONT DE NEMOURS AND COMPANY, priority 2007, published 2010)
